Source: patent US9670519B2, “Methods for reducing accumulation of lactate during culturing and method for producing polypeptide” (Biocon Limited, priority 2011, dated 2017)
Read-outs that look alike come from different tables or passages of the source.

Columns and labels:
[1] = tested on: Chinese Hamster Ovary (CHO) cells genetically engineered to produce the Anti TNF antibody; details: for Residual Lactate: salt 0.4 mM in HyClone CDM4NS0 medium, fedbatch; for further reduction in the accumulation of lactate in presence of said salt (versus control) / reduction of the accumulation of lactate in the media with the added salt: salt 0.4 mM, over the run till 7th day
Procedure: (§1) In another embodiment of the present disclosure, the level of lactate in the medium is analyzed using the device YSI 7100 MBS Analyzer.
(§2) The level of lactate is analyzed for all the following experiments in the below examples by the use of the YSI 7100 MBS Analyzer. The pH for all the below experiments as recited in the following examples are maintained between pH 6.85-7.2. The level of Oxygen is also maintained by the oxygen levels are maintained by agitation in the shaker incubator. In all the below mentioned examples, the concentration of the added salt is the concentration of the salt as present in the medium. The temperature can be suitably varied, based on the nature of the cells used and other related parameters.
(§3) The cell culturing was performed in fedbatch mode. In the cell culture, the mammalian host cells used were Chinese Hamster Ovary (CHO) cells and HyClone CDM4NS0 culture medium was supplied initially. The CHO cells were genetically engineered to produce the Anti TNF antibody. The copper sulphate pentahydrate salt is also added in the medium at a concentration of 0.4 mM. In contrast, there was no addition of any copper salt in the control medium. The production fermentation run started with an initial cell count of 0.3-0.45×10^6 cells/ml at 37±1° C., the first 3-4 days were dedicated to grow the cells in batch phase. In the next step, the temperature is lowered to 31±1° C. and the run is continued till 7th day. […] The produced Anti TNF antibody was then collected from the media using the technique of Affinity Chromatography.
(§4) The cell culturing was performed in a fedbatch mode. In the cell culture, the mammalian host cells used were Chinese Hamster Ovary (CHO) cells and HyClone CDM4NS0 culture medium was supplied initially. The CHO cells were genetically engineered to produce the Anti TNF antibody. The zinc sulphate hepta hydrate salt is also added in the medium at a concentration of 0.4 mM. In contrast, there was no addition of any zinc salt in the control medium. The production fermentation run started with an initial cell count of 0.3-0.45×10^6 cells/ml at 37±1° C., the first 3-4 days were dedicated to grow the cells in batch phase. In the next step, the temperature is lowered to 31±1° C. and the run is continued till 7th day. […] The produced Anti TNF antibody was then collected from the media using the technique of Affinity Chromatography.

[2] = tested on: Chinese Hamster Ovary (CHO) cells genetically engineered to produce the Anti VEGF-A antibody; details: for Residual Lactate: fedbatch; for further reduction in the accumulation of lactate in presence of said salt (versus control) / reduction of the accumulation of lactate in the media with the added salt: over the run till 7th day
Procedure: as §1, §2
as §3, with “VEGF-A” for “TNF”, “was” for “is also”, “31+/−1°” for “31±1°”
as §4, with “fedbatch.” for “a fedbatch mode.”, “VEGF-A” for “TNF”, “was” for “is also”, “31+/−1°” for “31±1°”
as §3, with “fedbatch mode is employed.” for “fedbatch mode.”, “Anti VEGF-A Antibody.” for “Anti TNF antibody.”, “of 0.2” for “of 0.4”, “Anti VEGF-A Antibody” for “Anti TNF antibody”
The cell culturing was performed in fedbatch mode. In the cell culture, the mammalian host cell used were Chinese Hamster Ovary (CHO) cells and HyClone CDM4NS0 culture medium was supplied initially. The CHO cells were genetically engineered to produce the Anti VEGF-A Antibody. The zinc sulphate hepta hydrate salt is also added in the medium at a concentration of 0.2 mM. In contrast, there was no addition of any zinc salt in the control medium.

[3] = tested on: Chinese Hamster Ovary (CHO) cells genetically engineered to produce the Anti Her-2 antibody; details: for Residual Lactate: salt 0.4 mM in HyClone CDM4NS0 medium, fedbatch; for further reduction in the accumulation of lactate in presence of said salt (versus control) / reduction of the accumulation of lactate in the media with the added salt: salt 0.4 mM, over the run till 7th day
Procedure: as §1, §2
as §3, with “Her-2” for “TNF”, “was” for “is also”, “31+/−1°” for “31±1°”
as §4, with “in” for “in a”, “Her-2” for “TNF”, “was” for “is also”, “31+/−1°” for “31±1°”

[4] = tested on: Chinese Hamster Ovary (CHO) cells genetically engineered to produce the Anti CD6 Antibody; details: for Residual Lactate: salt 0.4 mM in HyClone CDM4NS0 medium, fedbatch
Procedure: as §1, §2
as §4, with “in” for “in a”, “cellculture,” for “cell culture,”, “CD6 Antibody.” for “TNF antibody.”, “is” for “is also”, “CD6 Antibody” for “TNF antibody”

[5] = salt 0.2 mM in HyClone CDM4NS0 medium, age 72 hours
[6] = salt 0.2 mM in HyClone CDM4NS0 medium, age 96 hours
[7] = salt 0.2 mM in HyClone CDM4NS0 medium, age 120 hours
[8] = salt 0.2 mM in HyClone CDM4NS0 medium, age 144 hours
[9] = salt 0.2 mM in HyClone CDM4NS0 medium, age 168 hours
[10] = salt 0.4 mM in HyClone CDM4NS0 medium, age 72 hours
[11] = salt 0.4 mM in HyClone CDM4NS0 medium, age 96 hours
[12] = salt 0.4 mM in HyClone CDM4NS0 medium, age 120 hours
[13] = salt 0.4 mM in HyClone CDM4NS0 medium, age 144 hours
[14] = salt 0.4 mM in HyClone CDM4NS0 medium, age 168 hours
[15] = salt 0.4 mM, over the run till 7th day

| SMILES | Residual Lactate ([1]; age 96 hours) | Residual Lactate ([1]; age 120 hours) | Residual Lactate ([1]; age 144 hours) | Residual Lactate ([1]; age 168 hours) | further reduction in the accumulation of lactate in presence of said salt (versus control) [1] | reduction of the accumulation of lactate in the media with the added salt [1] | Residual Lactate [2, 5] | Residual Lactate [2, 6] | Residual Lactate [2, 7] | Residual Lactate [2, 8] | Residual Lactate [2, 9] | further reduction in the accumulation of lactate in presence of said salt (versus control) ([2]; salt 0.2 mM) | reduction of the accumulation of lactate in the media with the added salt ([2]; salt 0.2 mM) | Residual Lactate [2, 10] | Residual Lactate [2, 11] | Residual Lactate [2, 12] | Residual Lactate [2, 13] | Residual Lactate [2, 14] | further reduction in the accumulation of lactate in presence of said salt (versus control) ([2]; salt 0.4 mM) | reduction of the accumulation of lactate in the media with the added salt ([2]; salt 0.4 mM) | further results |
| --- | --- | --- | --- | --- | --- | --- | --- | --- | --- | --- | --- | --- | --- | --- | --- | --- | --- | --- | --- | --- | --- |
| O.O.O.O.O.O=S(=O)([O-])[O-].[Cu+2] [Copper salt, copper sulphate pentahydrate] | 20.3 mM | 16.3 mM | 13.2 mM | 14.6 mM | about 13.05% | about 28.43% | 23.3 mM | 14.9 mM | 7.9 mM | 5.8 mM | 2.7 mM | about 6.17% | about 85.40% | 16 mM | 14.8 mM | 5.9 mM | 3.4 mM | 2 mM | about 26.5% | about 87.5% | Residual Lactate ([1]; age 72 hours): 20.4 mM; Residual Lactate ([3]; age 72 hours): 16 mM; Residual Lactate ([3]; age 96 hours): 11.8 mM; Residual Lactate ([3]; age 120 hours): 7.4 mM; Residual Lactate ([3]; age 144 hours): 6.9 mM; Residual Lactate ([3]; age 168 hours): 5.6 mM; further reduction in the accumulation of lactate in presence of said salt (versus control) [3]: about 14.5%; reduction of the accumulation of lactate in the media with the added salt [3]: about 65% |
| O.O.O.O.O.O.O.O=S(=O)([O-])[O-].[Zn+2] [Zinc salt, zinc sulphate hepta hydrate] | 19.6 mM | 16.4 mM | 13.8 mM | 15 mM | about 6.09% | about 23.46% | 23.3 mM | 16.3 mM | 10 mM | 5.9 mM | 3.4 mM | about 9.18% | about 88.41% | 16.6 mM | 14.7 mM | 7.6 mM | 6.2 mM | 4.5 mM | about 11.57% | about 72.89% | Residual Lactate ([3]; age 72 hours): 16 mM; Residual Lactate ([3]; age 96 hours): 11.8 mM; Residual Lactate ([3]; age 120 hours): 7.4 mM; Residual Lactate ([3]; age 144 hours): 6.9 mM; Residual Lactate ([3]; age 168 hours): 5.6 mM; further reduction in the accumulation of lactate in presence of said salt (versus control) [3]: about 30.38%; reduction of the accumulation of lactate in the media with the added salt [3]: about 64.88%; Residual Lactate ([4]; age 72 hours): 18 mM; Residual Lactate ([4]; age 96 hours): 11.2 mM; Residual Lactate ([4]; age 120 hours): 6.2 mM; Residual Lactate ([4]; age 144 hours): 3 mM; Residual Lactate ([4]; age 168 hours): 3.2 mM; further reduction in the accumulation of lactate in presence of said salt (versus control) [4, 15]: about 11.67%; reduction of the accumulation of lactate in the media with the added salt [4, 15]: about 82.22% |
